From patent US20200165257A1, “INHIBITORS OF PHOSPHOINOSITIDE 3-KINASE AND HISTONE DEACETYLASE FOR TREATMENT OF CANCER” (THE UNITED STATES OF AMERICA, AS REPRESENTED BY THE …, priority 2017, published 2020)

Key:
HDAC6 = target: T1, HDAC6 (Homo sapiens, UniProt Q9UBN7); assay: HDAC Fluorescent Activity Assay; format: biochemical; details: symbols ++ / +; read-out: HDAC6 Inhibition Activity (IC50 class)
T1 sequence (Q9UBN7 1-1215): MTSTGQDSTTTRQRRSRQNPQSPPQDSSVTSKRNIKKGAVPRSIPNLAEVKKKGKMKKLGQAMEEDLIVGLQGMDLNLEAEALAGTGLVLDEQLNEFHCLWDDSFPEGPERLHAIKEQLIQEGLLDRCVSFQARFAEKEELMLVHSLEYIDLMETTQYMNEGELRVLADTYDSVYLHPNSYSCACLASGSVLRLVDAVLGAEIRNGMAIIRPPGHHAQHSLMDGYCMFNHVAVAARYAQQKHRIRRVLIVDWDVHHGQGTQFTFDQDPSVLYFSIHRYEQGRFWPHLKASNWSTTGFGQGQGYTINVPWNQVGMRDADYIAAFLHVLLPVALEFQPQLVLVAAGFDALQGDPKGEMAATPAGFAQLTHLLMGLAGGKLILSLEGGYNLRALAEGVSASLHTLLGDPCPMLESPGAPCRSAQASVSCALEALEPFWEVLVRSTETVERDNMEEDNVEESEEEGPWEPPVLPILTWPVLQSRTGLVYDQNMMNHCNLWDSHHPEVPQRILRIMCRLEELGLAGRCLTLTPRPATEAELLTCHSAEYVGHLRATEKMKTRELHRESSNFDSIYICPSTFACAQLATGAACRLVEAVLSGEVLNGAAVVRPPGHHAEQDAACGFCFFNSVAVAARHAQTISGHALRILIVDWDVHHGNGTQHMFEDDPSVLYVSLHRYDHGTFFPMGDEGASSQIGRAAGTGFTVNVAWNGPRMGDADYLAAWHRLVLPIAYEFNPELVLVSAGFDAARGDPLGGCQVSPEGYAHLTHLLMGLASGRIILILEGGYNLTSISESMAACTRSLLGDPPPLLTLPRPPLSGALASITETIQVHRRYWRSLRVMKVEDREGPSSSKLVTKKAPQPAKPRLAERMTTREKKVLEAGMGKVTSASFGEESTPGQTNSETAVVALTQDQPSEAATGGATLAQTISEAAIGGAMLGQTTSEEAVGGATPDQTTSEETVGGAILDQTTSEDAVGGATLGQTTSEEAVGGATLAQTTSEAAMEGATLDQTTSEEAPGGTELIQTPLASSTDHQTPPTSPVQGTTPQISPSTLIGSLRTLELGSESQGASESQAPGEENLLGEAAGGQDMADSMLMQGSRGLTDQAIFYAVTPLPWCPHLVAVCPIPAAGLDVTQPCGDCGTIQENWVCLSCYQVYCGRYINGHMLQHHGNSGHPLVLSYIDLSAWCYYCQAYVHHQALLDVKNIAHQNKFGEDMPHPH

[1] = test system: Leukemia Cell Line CCRF-CEM; assay: cells; format: cell-based; details: Homo sapiens, single dose, 10 uM compound concentration, read-out: inhibition of proliferation
Leukemia Cell Line K-562 = format: cell-based; details: Homo sapiens, K562; K-562; single dose, 10 uM compound concentration; read-out: inhibition of proliferation
[2] = test system: Leukemia Cell Line MOLT-4; format: cell-based; details: Homo sapiens; MOLT-4; single dose, 10 uM compound concentration; read-out: inhibition of proliferation
[3] = test system: Leukemia Cell Line RPMI-8226; format: cell-based; details: Homo sapiens; RPMI-8226; single dose, 10 uM compound concentration; read-out: inhibition of proliferation
Leukemia Cell Line SR = assay: cells; format: cell-based; details: Homo sapiens; SR; single dose, 10 uM compound concentration; read-out: inhibition of proliferation
[4] = test system: Melanoma Cell Line UACC-62; assay: cells; format: cell-based; details: Homo sapiens; UACC-62; single dose, 10 uM compound concentration; read-out: inhibition of proliferation
[5] = test system: Ovarian Cell Line NCI/ADR-RES; assay: cells; format: cell-based; details: Homo sapiens, single dose, 10 uM compound concentration, read-out: inhibition of proliferation
[6] = test system: Breast Cancer Cell Line HS 578T; format: cell-based; details: Homo sapiens; HS 578T; single dose, 10 uM compound concentration; read-out: inhibition of proliferation
[7] = test system: Breast Cancer Cell Line BT-549; assay: cells; format: cell-based; details: Homo sapiens; BT-549; single dose, 10 uM compound concentration; read-out: inhibition of proliferation
[8] = test system: Ovarian Cell Line OVCAR-3; assay: cells; details: Homo sapiens, OVCAR-3, read-out: inhibition of proliferation

IC50 (HDAC6): < 100 nM
SMILES: CC[C@H](Nc1nc(N)nc(C)c1C#N)c1nc2cccc(CN(C)c3ncc(C(=O)NO)cn3)c2c(=O)n1-c1ccccc1 [LII, (S)-2-(((2-(1-((2-amino-5-cyano-6-methylpyrimidin-4-yl)amino)propyl)-4-oxo-3-phenyl-3,4-dihydroquinazolin-5-yl)methyl)(methyl)amino)-N-hydroxypyrimidine-5-carboxamide]
inhibition at 10 µM [1]: > 50% | inhibition at 10 µM (Leukemia Cell Line K-562): > 50% | inhibition at 10 µM [2]: > 50% | inhibition at 10 µM [3]: > 50% | inhibition at 10 µM (Leukemia Cell Line SR): > 50% | inhibition at 10 µM [4]: > 50% | inhibition at 10 µM [5]: 25 to 50% | inhibition at 10 µM [6]: > 50% | inhibition at 10 µM [7]: > 50% | inhibition at 10 µM [8]: > 50%
